These results are taken from patent publication US20210024507A1, “Compounds” (Step Pharma S.A.S., priority 2018, published 2021).

The structures appear in SMILES notation. Bounds are passed on as bounds.

One test deals with T1, human CTPS1 (Homo sapiens, UniProt P17812).
T1 construct: purchased Proteros biostructures GmbH
T1 sequence (P17812 1-591): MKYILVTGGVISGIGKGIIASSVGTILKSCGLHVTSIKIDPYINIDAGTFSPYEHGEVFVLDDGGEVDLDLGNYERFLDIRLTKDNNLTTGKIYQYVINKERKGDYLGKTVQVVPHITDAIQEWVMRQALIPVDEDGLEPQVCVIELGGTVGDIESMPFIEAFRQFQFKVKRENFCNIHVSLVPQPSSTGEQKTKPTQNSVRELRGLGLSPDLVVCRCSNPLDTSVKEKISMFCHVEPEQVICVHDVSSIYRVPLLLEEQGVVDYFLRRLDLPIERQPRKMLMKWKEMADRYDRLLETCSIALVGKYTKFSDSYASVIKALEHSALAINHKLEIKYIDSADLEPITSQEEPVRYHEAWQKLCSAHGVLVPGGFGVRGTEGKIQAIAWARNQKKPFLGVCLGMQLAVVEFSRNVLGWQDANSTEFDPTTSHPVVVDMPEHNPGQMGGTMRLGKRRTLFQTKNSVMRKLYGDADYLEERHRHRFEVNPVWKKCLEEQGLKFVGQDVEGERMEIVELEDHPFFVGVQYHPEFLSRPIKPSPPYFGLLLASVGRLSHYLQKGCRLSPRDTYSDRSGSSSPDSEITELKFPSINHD
The experiment in a line: Human CTPS1 enzyme inhibition (ADP-Glo Max assay). Type of test: biochemical. The settings on record: human full length CTPS1, 25° C., numeric value printed instead of class symbol, read-out: CTPS1 (Human CTPS1 Enzyme Inhibition, IC50). As for the experimental part:
The enzyme inhibitory activities of compounds invented against the target of interest were determined using the ADP-GIoTM Max assay (Promega, UK). Assays for human CTPS1 were performed in lx assay buffer containing 50mM Tris, 10mM MgCl2, 0.01% Tween-20, pH to 8.0 accordingly. Finally, immediately before use, L-cysteine was added to the lx assay buffer to a final concentration of 2mM. All reagents are from Sigma-Aldrich unless specified otherwise. Human full length active C-terminal FLAG-Hiss-tag CTPS1 (UniProtKB - P17812, CTPS[1-591]-[…]) was obtained from Proteros biostructures GmbH.
Assay Procedure 3× human CTPS1 protein was prepared in lx assay buffer to the final working protein concentration required for the reaction. A 2uL volume per well of 3x human CTPS1 protein was mixed with 2uL per well of 3× test compound (compound prepared in lx assay buffer to an appropriate final 3× compound concentration respective to the concentration response curve designed for the compounds under test) for 10 minutes at 25° C. The enzymatic reaction was then initiated by addition of a 2uL per well volume of a pre-mixed substrate mix (UltraPure ATP from ADP-GIo™ Max kit (0.31mM), GTP (0.034mM), UTP (0.48mM) and L-glutamine (0.186mM)) and the mixture was incubated for an appropriate amount of time within the determined linear phase of the reaction at 25° C. under sealed plate conditions with constant agitation at 500 revolutions per minute (rpm). ADP-GIo™ Max reagent was added for 60 minutes ([…] per well) and subsequently ADP-GIo™ Max development reagent was added for 60 minutes (12uL per well) prior to signal detection in a microplate reader (EnVision® Multilabel Reader, Perkin Elmer). Following each reagent addition over the course of the assay, assay plates were pulse centrifuged for 30 seconds at 500rpm.
In all cases, the enzyme converts ATP to ADP and the ADP-GIo™ Max reagent subsequently depletes any remaining endogenous ATP in the reaction system. The ADP-GIo™ Max detection reagent converts the ADP that has been enzymatically produced back into ATP and using ATP as a substrate together with luciferin for the enzyme luciferase, light is generated which produces a detectable luminescence. […] The percentage inhibition produced by each concentration of compound was calculated using the equation shown below: […]
(§1) Percentage inhibition was then plotted against compound concentration, and the 50% inhibitory concentration (IC50) was determined from the resultant concentration-response curve.
For orientation: In ADP-Glo the light output rises with the ADP produced.
Usually IC50 stands for the concentration at which inhibition is half-maximal. As for `CS(=O)(=O)Nc1cncc(CC(=O)Nc2ccc(-c3cccnc3)cc2)n1` [P194, 2-(6-(methylsulfonamido)pyrazin-2-yl)-N-(4-(pyridin-3-yl)phenyl)acetamide], the IC50 is 58600 nM.

The test is the same for the next values; noted with them: human full length CTPS1, 25° C., read-out: CTPS1 (Human CTPS1 Enzyme Inhibition, IC50 grouped by potency range).
In the case of `CCOc1cncc(-c2ccc(NC(=O)C(CC)c3nccc(NS(=O)(=O)C4CC4)n3)nc2)n1` (stereo not drawn) [P208, 2-(4-(cyclopropanesulfonamido)pyrimidin-2-yl)-N-(5-(6-ethoxypyrazin-2-yl)pyridin-2-yl)butanamide], the IC50 is not above 100 nM. Take `CCC(C(=O)Nc1ccc(-c2cncc(C(F)(F)F)n2)cn1)c1cccc(NS(=O)(=O)C2CC2)n1` (stereo not drawn) [P187, 2-(6-(cyclopropanesulfonamido)pyridin-2-yl)-N-(5-(6-(trifluoromethyl)pyrazin-2-yl)pyridin-2-yl)butanamide]: the IC50 was 100 to 1000 nM. Still for that read-out and setting: for `CCC(C(=O)Nc1ccc(-c2cnccn2)cc1)c1ccnc(NS(=O)(=O)C2CC2)n1` (stereo not drawn) [P109, 2-(2-(cyclopropanesulfonamido)pyrimidin-4-yl)-N-(4-(pyrazin-2-yl)phenyl)butanamide] the value was 100 to 1000 nM; for `CCC(C(=O)Nc1ccc(-c2cncc(Cl)n2)cc1)c1ccnc(NS(=O)(=O)C2CC2)n1` (stereo not drawn) [P104, N-(4-(6-chloropyrazin-2-yl)phenyl)-2-(2-(cyclopropanesulfonamido)pyrimidin-4-yl)butanamide], 100 to 1000 nM.

In the case of `CCC(NC(=O)c1ccc(-c2cncc(Cl)c2)cc1)c1ccnc(NS(=O)(=O)C2CC2)n1` (stereo not drawn) [P214, 4-(5-chloropyridin-3-yl)-N-(1-(2-(cyclopropanesulfonamido)pyrimidin-4-yl)propyl)benzamide], the half-maximal inhibitory concentration (IC50) is 100 to 1000 nM. Turning to `CCC(NC(=O)c1ccc(-c2cncc(C(F)(F)F)n2)cc1)c1ccnc(NS(=O)(=O)C2CC2)n1` (stereo not drawn) [P217, N-(1-(2-(cyclopropanesulfonamido)pyrimidin-4-yl)propyl)-4-(6-(trifluoromethyl)pyrazin-2-yl)benzamide], the IC50 lay in the range of 100 to 1000 nM. On the same count and under the same terms, the figure for `CCOc1cncc(-c2ccc(NC(=O)C(CC)c3cccc(NS(=O)(=O)C4CC4)n3)c(F)c2)n1` (stereo not drawn) [P190, 2-(6-(cyclopropanesulfonamido)pyridin-2-yl)-N-(4-(6-ethoxypyrazin-2-yl)-2-fluorophenyl)butanamide] is 100 to 1000 nM. For `CCC(C(=O)Nc1ccc(-c2cncc(OC)n2)cc1)c1ccnc(NS(=O)(=O)C2CC2)n1` (stereo not drawn) [P106, 2-(2-(cyclopropanesulfonamido)pyrimidin-4-yl)-N-(4-(6-methoxypyrazin-2-yl)phenyl)butanamide], the 50% inhibitory concentration (IC50) was not above 100 nM. On to `CCOc1cncc(-c2ccc(NC(=O)C(C)(CCOC)c3cncc(NS(C)(=O)=O)n3)nc2)n1` (stereo not drawn) [P199, N-(5-(6-ethoxypyrazin-2-yl)pyridin-2-yl)-4-methoxy-2-methyl-2-(6-(methylsulfonamido)pyrazin-2-yl)butanamide], for which the IC50 lay in the range of 100 to 1000 nM.

As to `CCC(NC(=O)c1ccc(-c2cncc(OC(C)C)n2)cc1)c1ccnc(NS(=O)(=O)C2CC2)n1` (stereo not drawn) [P218, N-(1-(2-(cyclopropanesulfonamido)pyrimidin-4-yl)propyl)-4-(6-isopropoxypyrazin-2-yl)benzamide], the IC50 is not above 100 nM.

As for `CCC(NC(=O)c1ccc(-c2cncc(C(F)(F)F)c2)cc1F)c1ccnc(NS(=O)(=O)C2CC2)n1` (stereo not drawn) [P211, N-(1-(2-(cyclopropanesulfonamido)pyrimidin-4-yl)propyl)-2-fluoro-4-(5-(trifluoromethyl)pyridin-3-yl)benzamide], the IC50 fell in the range of 100 to 1000 nM. As for `CCC(C(=O)Nc1ccc(-c2cccnc2)cc1F)c1ccnc(NS(=O)(=O)C2CC2)n1` (stereo not drawn) [P93, 2-(2-(cyclopropanesulfonamido)pyrimidin-4-yl)-N-(2-fluoro-4-(pyridin-3-yl)phenyl)butanamide], the concentration for half-maximal inhibition (IC50) fell in the range of 1000 to 10000 nM. On the same count and under the same terms, for `CCC(C(=O)Nc1ccc(-c2cncc(C#N)c2)cc1)c1ccnc(NS(=O)(=O)C2CC2)n1` (stereo not drawn) [P99, N-(4-(5-cyanopyridin-3-yl)phenyI)-2-(2-(cyclopropanesulfonamido)pyrimidin-4-yl)butanamide] the value was 100 to 1000 nM.

Another test relates to human CTPS1. In words: RapidFire/MS-based enzyme selectivity assay, human CTPS1. The settings on record: calculated from the CTPS1 and CTPS2 IC50 values. It is filed as biochemical. How it is done:
The enzyme inhibitory activities against each target isoform of interest may be determined for the compounds of the invention using an optimised RapidFire high-throughput mass spectrometry (RF/MS) assay format. RF/MS assays for both human CTPS1 and CTPS2 may be performed in assay buffer consisting of 50mM HEPES (Merck), 20mM MgCl2, 5mM KCI, 1mM DTT, 0.01% Tween-20, pH to 8.0 accordingly. Human full-length active C-terminal FLAG-His-tag CTPS1 (UniProtKB - P17812, CTPS[1-591]-[…]) may be obtained from Proteros biostructures GmbH. Human full length active C-terminal FLAG-His-Avi tagged CTPS2 (UniProtKB-Q9NRF8, CTPS2 [1-586]- […]) may be obtained from Harker Bio.
Human CTPS (1 or 2) protein may be prepared in lx assay buffer to the final working protein concentration required for the reaction. A 2uL volume per well of 2× CTPS (1 or 2) protein may be mixed with 40nL of compound using acoustic (ECHO) delivery and incubated for 10 minutes at 25° C. Each isoform enzymatic reaction may be subsequently initiated by addition of 2uL per well of a 2× substrate mix in assay buffer. For hCTPS1: ATP (0.3mM), UTP (0.2mM), GTP (0.07mM) and L-glutamine (0.1mM). For hCTPS2: ATP (0.1mM), UTP (0.04mM), GTP (0.03mM) and L-glutamine (0.1mM). Each mixture may be incubated for an appropriate amount of time per isoform within the determined linear phase of the reaction at 25° C. A 60uL volume of stop solution (1% formic acid with 0.5uM ^13C9-^15N3-CTP in H2O) may be added and the plate immediately heat-sealed and centrifuged for 10 minutes at 4,000rpm. Following centrifugation, plates may be loaded onto the Agilent RapidFire microfluidic solid phase extraction system coupled to an AP14000 triple quadrupole mass spectrometer (RF/MS) for analysis.
In all cases, the enzyme converts UTP to CTP. Highly specific and sensitive multiple reaction monitoring (MRM) MS methods may be optimised for the detection of the enzymatic reaction product, CTP, and the stable isotope labelled product standard ^13C9-^15N3-CTP. Readout for data analysis may be calculated as the ratio between the peak area of the product CTP and the internal standard ^13C9-^15N3-CTP. For data reporting, the following equation may be used:
[formula] (R=ratio/readout, P=product signal area, IS=internal standard signal area)
For each screening plate, the means of the negative (DMSO) and positive control values were used for the calculation of the respective assay window (S/B) and Z′ values. The median of the respective control values was used for calculation of percent inhibition according to the following equation:
[formula] (I=Inhibition, Rneg=median of negative control readout values, Rpos=median of positive control readout values, Rsample=sample readout value)
as §1
Fold selectivity between CTPS1 and CTPS2 was subsequently calculated according to the following equation: […]
On to `CCOc1cncc(-c2ccc(NC(=O)C(C)(C)c3cncc(NS(=O)(=O)C4CC4)n3)cc2)n1` [P196, 2-(6-(cyclopropanesulfonamido)pyrazin-2-yl)-N-(4-(6-ethoxypyrazin-2-yl)phenyl)-2-methylpropanamide], for which the “Selectivity (fold selectivity between CTPS1 and CTPS2)” value is given as “+++ (>60 fold (+++))”. Same read-out and setting: for `CC(C)Oc1cncc(-c2ccc(NC(=O)C(C)(C)c3ccnc(NS(=O)(=O)C4CC4)n3)nc2)n1` [P9, 2-(2-(cyclopropanesulfonamido)pyrimidin-4-yl)-N-(5-(6-isopropoxypyrazin-2-yl)pyridin-2-yl)-2-methylpropanamide] the value was “+++ (>60 fold (+++))”. Same read-out and setting: the entry for `CC(C)(NC(=O)c1ccc(-c2cncc(C(F)(F)F)n2)cc1)c1cncc(NS(=O)(=O)C2CC2)n1` [P222, N-(2-(6-(cyclopropanesulfonamido)pyrazin-2-yl)propan-2-yl)-4-(6-(trifluoromethyl)pyrazin-2-yl)benzamide] is “+ (2-30 fold (+))”; for `CCOc1cncc(-c2ccc(C(=O)NCc3ccnc(NS(=O)(=O)C4CC4)n3)cc2)n1` [P118, N-((2-(cyclopropanesulfonamido)pyrimidin-4-yl)methyl)-4-(6-ethoxypyrazin-2-yl)benzamide] it is “+++ (>60 fold (+++))”.
